In PubChem BioAssay AID256 (DTP/NCI, 2004):
Toxic doses and inconclusive results are not listed. How the source made its calls: active means survival T/C of 150% or more; inactive means T/C below 125% in these data.

Test system: CD2F1 mice, L1210 leukemia ip, survival T/C
Experiment: NCI In Vivo Anticancer Drug Screen. Data for tumor model L1210 Leukemia (intraperitoneal) in CD2F1 (CDF1) mice
Conditions: higher = longer survival
Outline: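 Implant tumor; dose compound or vehicle; measure endpoint in both groups; report treated divided by control.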

[1] = endpoint: mean survival time, dose: 100.0 mg/kg/injection, schedule: Q01DX001 (ip), vehicle: saline
[2] = endpoint: mean survival time, dose: 200.0 mg/kg/injection, schedule: Q01DX001 (ip), vehicle: saline
[3] = endpoint: mean survival time, dose: 400.0 mg/kg/injection, schedule: Q01DX001 (ip), vehicle: saline
[4] = endpoint: mean survival time, dose: 100.0 mg/kg/injection, schedule: Q01DX001 (ip), vehicle: saline with Tween-80
[5] = endpoint: mean survival time, dose: 100.0 mg/kg/injection, schedule: Q04DX003 (ip), vehicle: saline with Tween-80
[6] = endpoint: mean survival time, dose: 200.0 mg/kg/injection, schedule: Q01DX001 (ip), vehicle: saline with Tween-80
[7] = endpoint: mean survival time, dose: 200.0 mg/kg/injection, schedule: Q04DX003 (ip), vehicle: saline with Tween-80
[8] = endpoint: mean survival time, dose: 400.0 mg/kg/injection, schedule: Q01DX001 (ip), vehicle: saline with Tween-80
[9] = endpoint: mean survival time, dose: 400.0 mg/kg/injection, schedule: Q04DX003 (ip), vehicle: saline with Tween-80
[10] = endpoint: mean survival time, dose: 100.0 mg/kg/injection, schedule: Q01DX009 (ip), vehicle: saline with Tween-80
[11] = endpoint: mean survival time, dose: 200.0 mg/kg/injection, schedule: Q01DX009 (ip), vehicle: saline with Tween-80
[12] = endpoint: mean survival time, dose: 25.0 mg/kg/injection, schedule: Q01DX009 (ip), vehicle: saline
[13] = endpoint: mean survival time, dose: 50.0 mg/kg/injection, schedule: Q01DX009 (ip), vehicle: saline
[14] = endpoint: mean survival time, dose: 100.0 mg/kg/injection, schedule: Q01DX009 (ip), vehicle: saline
[15] = endpoint: mean survival time, dose: 50.0 mg/kg/injection, schedule: Q01DX001 (ip), vehicle: saline with Tween-80
[16] = endpoint: mean survival time, dose: 400.0 mg/kg/injection, schedule: Q01DX009 (ip), vehicle: saline with Tween-80
[17] = endpoint: mean survival time, dose: 100.0 mg/kg/injection, schedule: Q01DX001 (ip), vehicle: Klucel (hydroxypropylcellulose) (HPC)
[18] = endpoint: mean survival time, dose: 200.0 mg/kg/injection, schedule: Q01DX009 (ip), vehicle: saline
[19] = endpoint: mean survival time, dose: 100.0 mg/kg/injection, schedule: Q04DX003 (ip), vehicle: saline

Measured: T/C

CC(C)CCCN
inactive: [1] 100 % of control | [2] 97 % of control | [3] 97 % of control

CC(=O)NC(CCc1ccc(Cl)c(Cl)c1)c1cccc(O)c(=O)c1 (stereo unspecified)
inactive: endpoint: median survival time, dose: 3.12 mg/kg/injection, schedule: Q01DX009 (ip), vehicle: Klucel (hydroxypropylcellulose) (HPC) 94 % of control | endpoint: median survival time, dose: 6.25 mg/kg/injection, schedule: Q01DX009 (ip), vehicle: Klucel (hydroxypropylcellulose) (HPC) 100 % of control | endpoint: median survival time, dose: 12.5 mg/kg/injection, schedule: Q01DX009 (ip), vehicle: Klucel (hydroxypropylcellulose) (HPC) 106 % of control | endpoint: median survival time, dose: 25.0 mg/kg/injection, schedule: Q01DX009 (ip), vehicle: Klucel (hydroxypropylcellulose) (HPC) 102 % of control | endpoint: median survival time, dose: 50.0 mg/kg/injection, schedule: Q01DX009 (ip), vehicle: Klucel (hydroxypropylcellulose) (HPC) 103 % of control | endpoint: median survival time, dose: 100.0 mg/kg/injection, schedule: Q01DX009 (ip), vehicle: Klucel (hydroxypropylcellulose) (HPC) 116 % of control

Cc1ccc(-c2nn[nH]n2)cc1[N+](=O)[O-]
inactive: [4] 109 % of control | [5] 95 % of control | [6] 86 % of control | [7] 97 % of control | [8] 89 % of control | [9] 95 % of control

CCCC(C)(C)c1ccc(Cl)cc1
inactive: endpoint: mean survival time, dose: 50.0 mg/kg/injection, schedule: Q01DX009 (ip), vehicle: saline with Tween-80 96 % of control | [10] 104 % of control | [11] 104 % of control

O=C1/C(=C/c2ccccc2[N+](=O)[O-])Cc2ccccc21
inactive: endpoint: mean survival time, dose: 100.0 mg/kg/injection, schedule: Q04DX003 (ip), vehicle: Klucel (hydroxypropylcellulose) (HPC) 100 % of control | endpoint: mean survival time, dose: 200.0 mg/kg/injection, schedule: Q04DX003 (ip), vehicle: Klucel (hydroxypropylcellulose) (HPC) 100 % of control | endpoint: mean survival time, dose: 400.0 mg/kg/injection, schedule: Q04DX003 (ip), vehicle: Klucel (hydroxypropylcellulose) (HPC) 103 % of control

COc1cc2c(cc1C(C)C)CCC1C(C)(C(=O)O)CCCC21C (stereo unspecified)
inactive: [4] 100 % of control | endpoint: mean survival time, dose: 100.0 mg/kg/injection, schedule: Q01DX009 (ip), vehicle: saline sonified 95 % of control | [6] 97 % of control | endpoint: mean survival time, dose: 200.0 mg/kg/injection, schedule: Q01DX009 (ip), vehicle: saline sonified 97 % of control | [8] 102 % of control | endpoint: mean survival time, dose: 400.0 mg/kg/injection, schedule: Q01DX009 (ip), vehicle: saline sonified 96 % of control

CC(=O)N1CCCCC1
inactive: [12] 102 % of control | [13] 96 % of control | [14] 102 % of control

CC(CCOc1ccc2ccc(=O)oc2c1)C1=CC(=O)C(C)(C)O1 (stereo unspecified)
inactive: [15] 113 % of control | [4] 95 % of control | [6] 98 % of control

CC1(C)CC(C)(OC(=O)c2ccccc2)N=N1 (stereo unspecified)
inactive: endpoint: mean survival time, dose: 25.0 mg/kg/injection, schedule: Q01DX009 (ip), vehicle: Klucel (hydroxypropylcellulose) (HPC) 97 % of control | endpoint: mean survival time, dose: 50.0 mg/kg/injection, schedule: Q01DX009 (ip), vehicle: Klucel (hydroxypropylcellulose) (HPC) 94 % of control | endpoint: mean survival time, dose: 100.0 mg/kg/injection, schedule: Q01DX009 (ip), vehicle: Klucel (hydroxypropylcellulose) (HPC) 101 % of control | endpoint: mean survival time, dose: 200.0 mg/kg/injection, schedule: Q01DX009 (ip), vehicle: Klucel (hydroxypropylcellulose) (HPC) 100 % of control | endpoint: mean survival time, dose: 400.0 mg/kg/injection, schedule: Q01DX009 (ip), vehicle: Klucel (hydroxypropylcellulose) (HPC) 101 % of control

COc1ccc2[nH]c3c(c2c1)CNCC3
inactive: endpoint: mean survival time, dose: 50.0 mg/kg/injection, schedule: Q01DX001 (ip), vehicle: saline 106 % of control | [1] 102 % of control | [2] 113 % of control

O=C1NC(=O)C([P+](c2ccccc2)(c2ccccc2)c2ccccc2)C1=O (stereo unspecified)
inactive: [5] 102 % of control | [7] 102 % of control | [9] 98 % of control

O=CC(Cc1ccccc1)CC(O)c1ccccc1 (stereo unspecified)
inactive: [4] 95 % of control | [10] 107 % of control | [6] 88 % of control | [11] 96 % of control | [8] 91 % of control | [16] 96 % of control

CCCC1C(=O)N2C(N(C)C)=Nc3ccc(C)cc3N2C1=O (stereo unspecified)
inactive: [5] 94 % of control | [7] 96 % of control | [9] 96 % of control

Cc1[nH]c2ccccc2c1C(=O)C(N)=O
inactive: [10] 100 % of control | [5] 92 % of control | [11] 97 % of control | [7] 86 % of control | [16] 95 % of control | [9] 92 % of control

CN(C)Nc1cc(N)c(N=Nc2ccccc2)c(=O)[nH]1
inactive: [17] 107 % of control | endpoint: mean survival time, dose: 200.0 mg/kg/injection, schedule: Q01DX001 (ip), vehicle: Klucel (hydroxypropylcellulose) (HPC) 97 % of control | endpoint: mean survival time, dose: 400.0 mg/kg/injection, schedule: Q01DX001 (ip), vehicle: Klucel (hydroxypropylcellulose) (HPC) 117 % of control

CC1CCCCC1NC(=O)Nc1ccccc1 (stereo unspecified)
inactive: [5] 94 % of control | [7] 92 % of control

BrCC[CH2][Sn]([Br])([Br])[Br]
inactive: [13] 103 % of control | [14] 91 % of control | [18] 95 % of control

FC1(F)C(I)=C(I)C1(F)F
inactive: endpoint: mean survival time, dose: 75.0 mg/kg/injection, schedule: Q01DX001 (ip), vehicle: saline 97 % of control | endpoint: mean survival time, dose: 150.0 mg/kg/injection, schedule: Q01DX001 (ip), vehicle: saline 103 % of control | endpoint: mean survival time, dose: 300.0 mg/kg/injection, schedule: Q01DX001 (ip), vehicle: saline 105 % of control

COc1ccccc1-n1c(C)nc2c(cnn2C2OC(CO)C(O)C2O)c1=O (stereo unspecified)
inactive: endpoint: mean survival time, dose: 12.5 mg/kg/injection, schedule: Q01DX005 (ip), vehicle: saline 107 % of control | endpoint: mean survival time, dose: 25.0 mg/kg/injection, schedule: Q01DX005 (ip), vehicle: saline 101 % of control | endpoint: mean survival time, dose: 50.0 mg/kg/injection, schedule: Q01DX005 (ip), vehicle: saline 101 % of control | endpoint: mean survival time, dose: 100.0 mg/kg/injection, schedule: Q01DX005 (ip), vehicle: saline 98 % of control | endpoint: mean survival time, dose: 200.0 mg/kg/injection, schedule: Q01DX005 (ip), vehicle: saline 101 % of control

CC(C)=CCCC(C)CCN(C)C (stereo unspecified)
inactive: [12] 94 % of control | [13] 94 % of control | [14] 93 % of control | [19] 93 % of control

CC(C)C(=O)Nc1cccc(OC(=O)NC(C)(C)C)c1
inactive: endpoint: mean survival time, dose: 25.0 mg/kg/injection, schedule: Q01DX001 (ip), vehicle: saline with Tween-80 100 % of control | [15] 91 % of control | [4] 94 % of control

Cc1cccc(OP(=O)(c2ccccc2)c2ccccc2)c1
inactive: [5] 98 % of control | [7] 98 % of control | [9] 103 % of control

O=C(OCCO)c1ccccc1
inactive: [10] 98 % of control | [5] 95 % of control | [11] 97 % of control | [7] 98 % of control | [16] 97 % of control | [9] 103 % of control

CCCCCCCCNC(=O)CC
inactive: [1] 103 % of control | [14] 94 % of control | [19] 97 % of control | [2] 100 % of control | [18] 94 % of control | endpoint: mean survival time, dose: 200.0 mg/kg/injection, schedule: Q04DX003 (ip), vehicle: saline 101 % of control | [3] 100 % of control | endpoint: mean survival time, dose: 400.0 mg/kg/injection, schedule: Q01DX009 (ip), vehicle: saline 92 % of control | endpoint: mean survival time, dose: 400.0 mg/kg/injection, schedule: Q04DX003 (ip), vehicle: saline 98 % of control

CN(C)c1ccn(C2OC(CO)C(O)C2O)c(=O)n1 (stereo unspecified)
inactive: endpoint: mean survival time, dose: 100.0 mg/kg/injection, schedule: Q01DX005 (ip), vehicle: water 107 % of control | endpoint: mean survival time, dose: 200.0 mg/kg/injection, schedule: Q01DX005 (ip), vehicle: water 103 % of control | endpoint: mean survival time, dose: 400.0 mg/kg/injection, schedule: Q01DX005 (ip), vehicle: water 115 % of control

Cc1nc(N)nc2c1CCC(O)S2 (stereo unspecified)
inactive: endpoint: mean survival time, dose: 25.0 mg/kg/injection, schedule: Q01DX001 (ip), vehicle: Klucel (hydroxypropylcellulose) (HPC) 96 % of control | endpoint: mean survival time, dose: 50.0 mg/kg/injection, schedule: Q01DX001 (ip), vehicle: Klucel (hydroxypropylcellulose) (HPC) 96 % of control | [17] 96 % of control
